Publication PMC8781960, “Structural Basis of 2-Phenylamino-4-phenoxyquinoline Derivatives as Potent HIV-1 Non-Nucleoside Reverse Transcriptase Inhibitors” (Molecules, 2022)
Marks after values point to notes of the source that are not given here.

Legend:
[1] = system: MOLT-3 (acute lymphoblastic leukemia); test: In vitro cytotoxicity (XTT); details: for %C percentage cytotoxicity MOLT-3: at 50 µg/mL, inactive (IC50 ≥ 50 µg/mL); for IC50: Homo sapiens, MOLT-3, 48 h, read-out: IC50 MOLT-3
Procedure: (§1) Background control wells contained the same volume as the complete culture medium. […] Samples at various concentrations were added to the microplate and incubated for another 48 h. Cell viability was determined by 3(4,5-dimethylthiazol-2-yl)-2-5-diphenyl tetrazolium bromide (MTT) assay (Sig-ma-Aldrich). The reagent was dissolved in phosphate-buffered saline at 5 mg/mL and filtered to sterilize and remove the small amount of insoluble residue present in some batches of MTT. […] Subsequently, dimethyl sulfoxide (100 µL; Merck, Germany) was added to dissolve the resulting formazan by sonication. The plates were read on a microplate reader (Molecular Devices, CA, USA) using a test wavelength of 550 nm and a reference wavelength of 650 nm. XTT assay for suspension cells was used for MOLT-3 cells.

[2] = system: T47-D (hormone-dependent breast cancer); test: In vitro cytotoxicity (MTT); details: for %C percentage cytotoxicity T47-D: at 50 µg/mL, inactive (IC50 ≥ 50 µg/mL); for IC50: Homo sapiens, T47D, 48 h, read-out: IC50 T47-D
Procedure: as §1

S102 (Thai liver cancer) = test: In vitro cytotoxicity (MTT); details: for %C percentage cytotoxicity S102: at 50 µg/mL, inactive (IC50 ≥ 50 µg/mL); for IC50: Homo sapiens, 48 h, read-out: IC50 S102
Procedure: as §1

[3] = system: HuCCA-1 (cholangiocarcinoma); test: In vitro cytotoxicity (MTT); details: for %C percentage cytotoxicity HuCCA-1: at 50 µg/mL, inactive (IC50 ≥ 50 µg/mL); for IC50: Homo sapiens, HuCC-A1, 48 h, read-out: IC50 HuCCA-1
Procedure: as §1

A549 (lung carcinoma) = test: In vitro cytotoxicity (MTT); details: for %C percentage cytotoxicity A549: at 50 µg/mL, inactive (IC50 ≥ 50 µg/mL); for IC50: Homo sapiens, A549, 48 h, read-out: IC50 A549
Procedure: as §1

HepG2 (hepatocarcinoma) = test: In vitro cytotoxicity (MTT); details: for %C percentage cytotoxicity HepG2: at 50 µg/mL, inactive (IC50 ≥ 50 µg/mL); for IC50: Homo sapiens, HepG2, 48 h, read-out: IC50 HepG2
Procedure: as §1

[4] = system: MDA-MB-231 (hormone-independent breast cancer); test: In vitro cytotoxicity (MTT); details: for %C percentage cytotoxicity MDA-MB-231: at 50 µg/mL, inactive (IC50 ≥ 50 µg/mL); for IC50: Homo sapiens, MDA-MB-231, 48 h, read-out: IC50 MDA-MB-231
Procedure: as §1

[5] = system: HeLA (cervical carcinoma); test: In vitro cytotoxicity (MTT); details: for %C percentage cytotoxicity HeLA: at 50 µg/mL, inactive (IC50 ≥ 50 µg/mL); for IC50: Homo sapiens, HeLa, 48 h, read-out: IC50 HeLA
Procedure: as §1

HL-60 (promyeloblast) = test: In vitro cytotoxicity (MTT); details: for %C percentage cytotoxicity HL-60: at 50 µg/mL, inactive (IC50 ≥ 50 µg/mL); for IC50: Homo sapiens, HL-60, 48 h, read-out: IC50 HL-60
Procedure: as §1

[6] = system: MRC-5 (normal embryonic lung cell); test: In vitro cytotoxicity (MTT), normal cell line; details: for %C percentage cytotoxicity MRC-5: normal cell line, at 50 µg/mL, inactive (IC50 ≥ 50 µg/mL); for IC50: Homo sapiens, MRC5, 48 h, read-out: IC50 MRC-5
Procedure: as §1

HIV-1 RT = biological target: T1, HIV-1 RT (Human immunodeficiency virus type 1 group M subtype B, UniProt P03366); test: HIV-1 RT inhibition assay (Roche RT kit, colorimetric ELISA); type: biochemical; details: for inhibition at 1 µM: read-out: Inhibitory activities (%) against HIV-1 RT
T1 construct: The reaction mixture consisted of template/primer complex, 2′-deoxy-nucleotide-5′-triphosphates (dNTPs), and RT enzyme in lysis buffer; purchased Roche Applied Science, Mannheim, Germany
From the text: The inhibition assay of HIV-1 RT was accomplished using the template/primer hybrid poly(A) × oligo(dT)15, digoxigenin (DIG)- and biotin-labeled nucleotides, an antibody to DIG that was conjugated to peroxidase (anti-DIG-POD), and the peroxidase substrate ABTS. The quantities of DIG- and biotin-labeled dUTP incorporated into DNA represent t HIV-1 RT activity. The HIV-RT inhibition assay was implemented using an RT assay kit (Roche Applied Science, Mannheim, Germany), and the procedures for assaying RT inhibition were performed as described in the kit protocol. […] The reaction mixture consisted of template/primer complex, 2′-deoxy-nucleotide-5′-triphosphates (dNTPs), and RT enzyme in lysis buffer with or without an inhibitor. […] The biotin-labeled dNTPs that were incorporated in the template bound to streptavidin because of the presence of RT. Unbound dNTPs were washed using a wash buffer, and anti-DIG-POD was added to the MTP. The DIG-labeled dNTPs incorporated in the template bound to the anti-DIG-POD antibody. Unbound anti-DIG-POD was also washed elaborately five times using a wash buffer. Finally, the peroxide substrate (ABST) was added to the MTP. A colored reaction product emerged during the cleavage of the substrate catalyzed by […]. The absorbance of the sample was measured at the optical density (OD) at 490 nm using the MTP (enzyme-linked immunosorbent assay [ELISA]) reader. The percentage inhibitory activities of the RT inhibitors were calculated by comparing with that of the sample without an inhibitor. The resulting color intensity was directly proportional to the RT activity. Percentage inhibitory values were calculated using the following formula: Inhibition (%) = [1–(OD value with RT and inhibitor−OD value without RT and inhibitors)/(OD value without inhibitors with RT−OD value without RT and inhibitors)] × 100.

[7] = system: H69AR (lung cancer, multidrug resistant); test: In vitro cytotoxicity (MTT); type: cell-based, human; details: 48 h; for %C percentage cytotoxicity H69AR: human, 50 µg/mL; for IC50: Homo sapiens, H69AR, mean ± standard error
Procedure: Background control wells contained the same volume as the complete culture medium. […] The reagent was dissolved in phosphate-buffered saline at 5 mg/mL and filtered to sterilize and remove the small amount of insoluble residue present in some batches of MTT. […] Subsequently, dimethyl sulfoxide (100 µL; Merck, Germany) was added to dissolve the resulting formazan by sonication. The plates were read on a microplate reader (Molecular Devices, CA, USA) using a test wavelength of 550 nm and a reference wavelength of 650 nm.

| Compound | %C percentage cytotoxicity A549 (A549 (lung carcinoma)) | %C percentage cytotoxicity MRC-5 [6] | inhibition at 1 µM (HIV-1 RT) [%] | IC50 [1] [µM] | IC50 [2] [µM] | IC50 (S102 (Thai liver cancer)) [µM] | IC50 [3] [µM] | IC50 (HepG2 (hepatocarcinoma)) [µM] | IC50 [4] [µM] | IC50 [5] [µM] | IC50 (HL-60 (promyeloblast)) [µM] | IC50 [7] [µM] | other results |
| --- | --- | --- | --- | --- | --- | --- | --- | --- | --- | --- | --- | --- | --- |
| Cc1cc(/C=C\C#N)cc(C)c1Oc1cc(Nc2ccc(C#N)cn2)nc2ccccc12 [Compound 10b-cis, 4-(4′-(2″-(E, Z)-cyanovinyl)-2′,6′-dimethyl-phenoxy)-2-(5″-cyanopyridin-2″ylamino)-aminoquinoline] | %C = 0.0 ^c | %C = 0.0 ^c | 29.4 ± 3.6 | – | – | – | – | – | – | – | – | – | %C percentage cytotoxicity MOLT-3 [1]: %C = 11.0 ^c; %C percentage cytotoxicity T47-D [2]: %C = 0.0 ^c; %C percentage cytotoxicity S102 (S102 (Thai liver cancer)): %C = 0.0 ^c; %C percentage cytotoxicity HuCCA-1 [3]: %C = 0.0 ^c; %C percentage cytotoxicity HepG2 (HepG2 (hepatocarcinoma)): %C = 0.0 ^c; %C percentage cytotoxicity MDA-MB-231 [4]: %C = 0.0 ^c; %C percentage cytotoxicity HeLA [5]: %C = 0.0 ^c; %C percentage cytotoxicity HL-60 (HL-60 (promyeloblast)): %C = 5.0 ^c; %C percentage cytotoxicity H69AR [7]: %C = 0.0 ^c |
| Cc1cc(/C=C/C#N)cc(C)c1Oc1cc(Nc2ccc(C#N)cn2)nc2ccccc12 [Compound 10b-trans, 4-(4′-(2″-(E, Z)-cyanovinyl)-2′,6′-dimethyl-phenoxy)-2-(5″-cyanopyridin-2″ylamino)-aminoquinoline] | %C = 1.0 ^c | %C = 0.0 ^c | 32.4 ± 3.5 | – | – | – | – | – | – | – | – | – | %C percentage cytotoxicity MOLT-3 [1]: %C = 2.0 ^c; %C percentage cytotoxicity T47-D [2]: %C = 0.0 ^c; %C percentage cytotoxicity S102 (S102 (Thai liver cancer)): %C = 3.1 ^c; %C percentage cytotoxicity HuCCA-1 [3]: %C = 0.0 ^c; %C percentage cytotoxicity HepG2 (HepG2 (hepatocarcinoma)): %C = 1.0 ^c; %C percentage cytotoxicity MDA-MB-231 [4]: %C = 17.0 ^c; %C percentage cytotoxicity HeLA [5]: %C = 10.0 ^c; %C percentage cytotoxicity HL-60 (HL-60 (promyeloblast)): %C = 31.0 ^c; %C percentage cytotoxicity H69AR [7]: %C = 0.0 ^c |
| Cc1cc(/C=C/C#N)cc(C)c1Nc1ccnc(Nc2ccc(C#N)cc2)n1 [RPV, rilpivirine, reference compound] | %C = 42.0 ^c | %C = 14.4 ^c | 97.1 ± 0.9 | 4.3 ± 0.5 | 15 ± 1.3 | 22.5 ± 1.2 | 61.3 ± 1.7 | 87.4 ± 0.1 | 25.3 ± 2.9 | 11.3 ± 1.2 | 11.5 ± 0.8 | 57.1 ± 2 | cytotoxicity toward normal embryonic lung (MRC-5) cells, in words [6]: very low cytotoxicity; IC50 (HIV-1 RT): 0.06 µM |
| COc1cc([C@@H]2c3cc4c(cc3[C@@H](O[C@@H]3O[C@@H]5CO[C@@H](C)O[C@H]5[C@H](O)[C@H]3O)[C@H]3COC(=O)[C@H]23)OCO4)cc(OC)c1O [Etoposide, etoposide, reference compound] | – | – | – | 0.03 | – | – | – | 49.9 ± 1.1 | – | – | 0.8 ± 0.1 | – | – |
| O=C1Nc2ccc(Cl)cc2[C@@](C#CC2CC2)(C(F)(F)F)O1 [EFV, efavirenz, reference compound] | – | – | – | 24.6 ± 1.2 | 59.2 ± 0.8 | 93.5 ± 4.7 | 59.6 ± 2.4 | 86.6 ± 3.9 | 77.7 ± 5.6 | 46.2 ± 1.3 | 33.7 ± 1.1 | 105 ± 3.4 | IC50 (A549 (lung carcinoma)): 60.2 ± 1.8 µM; IC50 [6]: 95.6 ± 6 µM |
| 4,4′-di-(2’,6’-Dimethyl-4’-formylphenoxy)-2,2′-biquinoline [Compound 7b] | – | – | – | – | – | – | – | – | – | – | – | – | Inhibitory activities (%) against HIV-1 RT (HIV-1 RT; 1 µM, mean ± standard error): 30.3 ± 2.3% |
| COc1cccc2c1C(=O)c1c(O)c3c(c(O)c1C2=O)C[C@@](O)(C(=O)CO)C[C@@H]3O[C@H]1C[C@H](N)[C@H](O)[C@H](C)O1 [Doxorubicin, reference compound] | – | – | – | 0.02 | 1.2 | 2.2 | 0.9 | 0.6 | 2.5 ± 0.1 | 0.4 | 0.1 | 34.3 ± 0.1 | IC50 (A549 (lung carcinoma)): 0.6 µM; IC50 [6]: 3.1 ± 0.5 µM |
